Laboratory results taken from patent US20260152504A1, “PYRIMIDINE SGC STIMULATORS” (Tisento Therapeutics Inc., priority 2022, published 2026).

Target: T1, sGC (Rattus norvegicus, UniProt P20595)
T1 construct: Rat primary neurons were isolated from timed-pregnant female Sprague-Dawley (SD) rats; endogenous in cells; host or cells: rat primary neurons (Sprague-Dawley)
T1 sequence (P20595 1-619): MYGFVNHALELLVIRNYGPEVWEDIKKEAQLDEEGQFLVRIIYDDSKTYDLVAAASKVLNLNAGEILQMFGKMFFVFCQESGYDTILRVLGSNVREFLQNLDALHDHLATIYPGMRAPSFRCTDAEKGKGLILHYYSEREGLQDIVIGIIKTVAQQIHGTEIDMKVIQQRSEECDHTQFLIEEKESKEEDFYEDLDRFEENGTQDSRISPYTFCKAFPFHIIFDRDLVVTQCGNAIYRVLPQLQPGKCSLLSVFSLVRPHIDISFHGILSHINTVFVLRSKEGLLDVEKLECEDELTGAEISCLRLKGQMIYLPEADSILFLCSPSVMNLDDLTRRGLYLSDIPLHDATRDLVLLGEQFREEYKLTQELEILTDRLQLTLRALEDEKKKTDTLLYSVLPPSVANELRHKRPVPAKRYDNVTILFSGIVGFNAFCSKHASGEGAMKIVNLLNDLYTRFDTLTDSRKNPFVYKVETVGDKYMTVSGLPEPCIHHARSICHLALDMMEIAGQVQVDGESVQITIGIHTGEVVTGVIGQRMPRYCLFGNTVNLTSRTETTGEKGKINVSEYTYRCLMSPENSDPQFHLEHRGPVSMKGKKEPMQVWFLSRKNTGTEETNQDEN
T1 sequence (P19686 1-690 partner): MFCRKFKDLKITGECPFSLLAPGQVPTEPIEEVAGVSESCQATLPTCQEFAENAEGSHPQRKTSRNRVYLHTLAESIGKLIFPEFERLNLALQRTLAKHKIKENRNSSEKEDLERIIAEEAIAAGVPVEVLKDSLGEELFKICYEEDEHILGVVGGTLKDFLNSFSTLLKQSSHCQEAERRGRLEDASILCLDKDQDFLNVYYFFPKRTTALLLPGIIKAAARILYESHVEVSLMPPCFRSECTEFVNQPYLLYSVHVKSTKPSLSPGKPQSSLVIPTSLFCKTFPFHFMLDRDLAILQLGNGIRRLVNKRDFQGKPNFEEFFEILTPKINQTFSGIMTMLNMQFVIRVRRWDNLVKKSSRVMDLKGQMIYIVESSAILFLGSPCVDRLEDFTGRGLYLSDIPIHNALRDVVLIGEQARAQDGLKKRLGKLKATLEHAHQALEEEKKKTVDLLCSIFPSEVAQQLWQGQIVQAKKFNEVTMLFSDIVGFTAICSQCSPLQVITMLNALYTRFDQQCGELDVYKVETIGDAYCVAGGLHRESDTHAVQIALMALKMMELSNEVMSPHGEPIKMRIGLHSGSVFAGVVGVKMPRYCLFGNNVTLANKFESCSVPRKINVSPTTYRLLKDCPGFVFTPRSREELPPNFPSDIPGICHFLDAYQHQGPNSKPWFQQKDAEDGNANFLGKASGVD
Assay: cGMP measurement in rat primary neurons (neuronal-based cell assay)
Details: rat primary neurons (Sprague-Dawley); 0.5 mM IBMX; test compound with fixed DETA (Diethylenetriamine NONOate); 20 min at 37° C.; cGMP by CatchPoint kit; read-out: sGC Neuron EC50
Procedure: Example 2: cGMP Measurement in Rat Primary Neurons
Rat primary neurons were isolated from timed-pregnant female Sprague-Dawley (SD) rats, washed once with HBSS with calcium and magnesium and incubated with a solution containing 0.5 mM 3-isobutyl-1-methylxanthine (IBMX) in HBSS (80 μL/well) at 37° C. for 15 min. Next, a 5× stock […] of test compound with a fixed concentration of DETA (Diethylenetriamine NONOate) was added to the wells to make x nM concentration for test compound solutions and a 30 µM concentration for DETA solution, where x was 1 of the following final concentrations: 0.029, 0.114, 0.460, 1.83, 7.32, 29.29, 117.2, 468.8, 1875, 7500 and 30,000 nM. Then, the cells were incubated for 20 min at 37° C. At the end of incubation, 100 μL lysis buffer (Molecular Devices) was added to cells. CatchPoint™ Cyclic-GMP Fluorescent Assay Kit was used with Molecular Devices' ID3 multi-mode plate reading. Sample cGMP concentrations were extrapolated from standard curve using Softmax Pro 7 Software. A well-characterized, potent sGC stimulator was included in all assay runs and used as a positive control.
Test compound (“agonist”) concentrations vs extrapolated cGMP concentrations (“response”) were plotted and analyzed using GraphPad Prism version 9.4.1. Curve fit was used for each dataset; non-linear log(agonist) vs. response-variable slope (four parameters). The EC50 is interpolated from the curve fit and is defined as the concentration at which the compound elicits 50% of its maximal response. When the experiment is carried out more than two times, the geometric mean is reported, otherwise the arithmetic mean is shown. To increase the accuracy of the EC50 calculations, top and bottom parameters were constrained when consistent with the observed data in a given assay run. For instance, in assay runs where the cGMP response values in the absence of test article were consistent across plates, an average across all of these wells was used as a lower constraint in the calculations. In assay runs where the maximal cGMP responses were consistent with that of the positive control, a top constraint equal to the maximal cGMP response of the positive control was applied. If there was significant variability in cGMP response in no compound wells or variation in maximal responses across plates, no constraints were imposed.

Row | EC50 [nM] | SMILES
1 | > 5000 | COCc1nc(-c2cn3ccnc3c(Cc3cc(F)c(C)cc3F)n2)nc(O)c1OC [Compound I-27, 2-(8-(2,5-difluoro-4-methylbenzyl)imidazo[1,2-a]pyrazin-6-yl)-5-methoxy-6-(methoxymethyl)pyrimidin-4-ol]
2 | 1000 to 5000 | Cc1cc(F)c(Cc2nc(-c3nc(O)c(F)c(CF)n3)cn3ncnc23)cc1F [Compound I-5, 2-(8-(2,5-difluoro-4-methylbenzyl)-[1,2,4]triazolo[1,5-a]pyrazin-6-yl)-5-fluoro-6-(fluoromethyl)pyrimidin-4-ol]
3 | 100 to 1000 | COc1c(O)nc(-c2cn3ccnc3c(Cc3cc(F)c(C)cc3F)n2)nc1CF [Compound I-21, 2-(8-(2,5-difluoro-4-methylbenzyl)imidazo[1,2-a]pyrazin-6-yl)-6-(fluoromethyl)-5-methoxypyrimidin-4-ol]
4 | 100 to 1000 | Cc1cc(F)c(Cc2nc(-c3ncc(C(C)O)c(O)n3)cn3ccnc23)cc1F (centres unmarked) [Compound I-28, 2-(8-(2,5-difluoro-4-methylbenzyl)imidazo[1,2-a]pyrazin-6-yl)-5-(1-hydroxyethyl)pyrimidin-4-ol]
5 | 100 to 1000 | Cc1cc(F)c(Cc2nc(-c3ncc(CO)c(O)n3)cn3ccnc23)cc1F [Compound I-25, 2-(8-(2,5-difluoro-4-methylbenzyl)imidazo[1,2-a]pyrazin-6-yl)-5-(hydroxymethyl)pyrimidin-4-ol]
6 | 1000 to 5000 | CCc1cc(O)nc(-c2cn3ccnc3c(Cc3cc(F)c(C)cc3F)n2)n1 [Compound I-30, 2-{8-[(2,5-difluoro-4-methylphenyl)methyl]imidazo[1,2-a]pyrazin-6-yl}-6-ethylpyrimidin-4-ol]
7 | 100 to 1000 | Cc1cc(F)c(Cc2nc(-c3nc(O)c(F)c(CF)n3)cn3ccnc23)cc1F [Compound I-45, 2-(8-(2,5-difluoro-4-methylbenzyl)imidazo[1,2-a]pyrazin-6-yl)-5-fluoro-6-(fluoromethyl)pyrimidin-4-ol]
8 | > 5000 | CSc1cnc2c(Cc3cc(F)c(C)cc3F)nc(-c3nc(O)c(C)c(Br)n3)cn12 [Compound I-12, 6-bromo-2-(8-(2,5-difluoro-4-methylbenzyl)-3-(methylthio)imidazo[1,2-a]pyrazin-6-yl)-5-methylpyrimidin-4-ol]
9 | 100 to 1000 | COCc1nc(-c2cn3ccnc3c(Cc3cc(F)c(C)cc3F)n2)nc(O)c1F [Compound I-22, 2-(8-(2,5-difluoro-4-methylbenzyl)imidazo[1,2-a]pyrazin-6-yl)-5-fluoro-6-(methoxymethyl)pyrimidin-4-ol]
10 | 1000 to 5000 | Cc1cc(F)c(Cc2nc(-c3ncc(F)c(O)n3)cn3c(CO)cnc23)cc1F [Compound I-35, 2-(8-(2,5-difluoro-4-methylbenzyl)-3-(hydroxymethyl)imidazo[1,2-a]pyrazin-6-yl)-5-fluoropyrimidin-4-ol]
11 | > 5000 | Cc1cc(F)c(Cc2nc(-c3nc(O)cc(CCO)n3)cn3ccnc23)cc1F [Compound I-26, 2-(8-(2,5-difluoro-4-methylbenzyl)imidazo[1,2-a]pyrazin-6-yl)-6-(2-hydroxyethyl)pyrimidin-4-ol]
12 | 100 to 1000 | CC(=O)c1cnc(-c2cn3ccnc3c(Cc3cc(F)c(C)cc3F)n2)nc1O [Compound I-24, 1-(2-(8-(2,5-difluoro-4-methylbenzyl)imidazo[1,2-a]pyrazin-6-yl)-4-hydroxypyrimidin-5-yl)ethan-1-one]

The next lines start with the compound.

Row | SMILES | EC50 [nM]
13 | COc1cnc2c(Cc3cc(F)c(C#N)cc3C)nc(-c3ncc(F)c(O)n3)cn12 [Compound I-32, 2-fluoro-4-((6-(5-fluoro-4-hydroxypyrimidin-2-yl)-3-methoxyimidazo[1,2-a]pyrazin-8-yl)methyl)-5-methylbenzonitrile] | > 5000
14 | Cc1cc(F)c(Cc2nc(-c3ncc(C#N)c(O)n3)cn3c(F)cnc23)cc1F [Compound I-17, 2-(8-(2,5-difluoro-4-methylbenzyl)-3-fluoroimidazo[1,2-a]pyrazin-6-yl)-4-hydroxypyrimidine-5-carbonitrile] | ≤ 100
15 | COc1cnc2c(Cc3cc(F)c(C)cc3F)nc(-c3ncc(C)c(O)n3)cn12 [Compound I-7, 2-(8-(2,5-difluoro-4-methylbenzyl)-3-methoxyimidazo[1,2-a]pyrazin-6-yl)-5-methylpyrimidin-4-ol] | > 5000
16 | CC(=O)c1ccc(Cc2nc(-c3ncc(F)c(O)n3)cn3c(Cl)cnc23)c(F)c1 [Compound I-9, 1-(4-((3-chloro-6-(5-fluoro-4-hydroxypyrimidin-2-yl)imidazo[1,2-a]pyrazin-8-yl)methyl)-3-fluorophenyl)ethan-1-one] | > 5000
17 | Cc1cnc2c(Cc3cc(F)c(Cl)cc3F)nc(-c3nc(O)c(F)c(O)n3)cn12 [Compound I-6, 2-(8-(4-chloro-2,5-difluorobenzyl)-3-methylimidazo[1,2-a]pyrazin-6-yl)-5-fluoropyrimidine-4,6-diol] | > 5000
18 | COc1cnc2c(Cc3cc(F)c(C)cc3F)nc(-c3ncc(Cl)c(O)n3)cn12 [Compound I-29, 5-chloro-2-{8-[(2,5-difluoro-4-methylphenyl)methyl]-3-methoxyimidazo[1,2-a]pyrazin-6-yl}pyrimidin-4-ol] | 100 to 1000
19 | N#Cc1cn2cc(-c3ncc(F)c(O)n3)nc(Cc3cc(F)c(F)cc3F)c2n1 [Compound I-3, 6-(5-fluoro-4-hydroxypyrimidin-2-yl)-8-(2,4,5-trifluorobenzyl)imidazo[1,2-a]pyrazine-2-carbonitrile] | ≤ 100
20 | CC(=O)c1cnc2c(Cc3cc(F)ccc3F)nc(-c3nc(C)c(F)c(O)n3)cn12 [Compound I-8, 1-(8-(2,5-difluorobenzyl)-6-(5-fluoro-4-hydroxy-6-methylpyrimidin-2-yl)imidazo[1,2-a]pyrazin-3-yl)ethan-1-one] | > 5000
21 | CCOCc1nc(-c2cn3ncnc3c(Cc3cc(F)c(C)cc3F)n2)nc(O)c1F [Compound I-44, 2-(8-(2,5-difluoro-4-methylbenzyl)-[1,2,4]triazolo[1,5-a]pyrazin-6-yl)-6-(ethoxymethyl)-5-fluoropyrimidin-4-ol] | > 5000
22 | Cc1cc(C#N)c(F)cc1Cc1nc(-c2ncc(F)c(O)n2)cn2c(F)cnc12 [Compound I-4, 2-fluoro-4-((3-fluoro-6-(5-fluoro-4-hydroxypyrimidin-2-yl)imidazo[1,2-a]pyrazin-8-yl)methyl)-5-methylbenzonitrile] | > 5000
23 | Cc1nc(-c2cn3c(C(C)O)cnc3c(Cc3cc(F)ccc3F)n2)nc(O)c1F (centres unmarked) [Compound I-31, 2-(8-(2,5-difluorobenzyl)-3-(1-hydroxyethyl)imidazo[1,2-a]pyrazin-6-yl)-5-fluoro-6-methylpyrimidin-4-ol] | > 5000
